Molecular target: T1, CFTR (F508del/MF-HBE cells) (Homo sapiens, UniProt P13569, DEL508-508)
T1 construct: human bronchial epithelial (HBE) cells derived from CF subjects heterozygous for F508del and a minimal function CFTR mutation; endogenous in cells; host or cells: primary human bronchial epithelial cells from CF subjects (F508del/MF genotype)
Experiment: Ussing chamber assay of CFTR-mediated short-circuit currents (identification of potentiator compounds)
Type: cell-based
Conditions: CFTR-mediated ISC in F508del/MF-HBE cells; incubated 18-24 hours at 37° C. with 10 μM (14S)-8-[3-(2-{dispiro[2.0.2.1]heptan-7-yl}ethoxy)-1H-pyrazol-1-yl]-...-2,2,4-trione, 20% human serum
Method: Ussing Chamber Assay of CFTR-Mediated Short-Circuit Currents
Ussing chamber experiments were performed using human bronchial epithelial (HBE) cells derived from CF subjects heterozygous for F508del and a minimal function CFTR mutation (F508del/MF-HBE) and cultured as previously described (Neuberger T, Burton B, Clark H, Van Goor F Methods Mol Biol 2011:741:39-54). After four days the apical media was removed, and the cells were grown at an air liquid interface for >14 days prior to use.
To isolate the CFTR-mediated short-circuit (ISC) current, F508del/MF-HBE grown on Costar® Snapwell™ cell culture inserts were mounted in an Ussing chamber and the transepithelial ISC was measured under voltage-clamp recording conditions (Vhold=0 mV) at 37° C. The basolateral solution contained (in mM) 145 NaCl, 0.83 K2HPO4, 3.3 KH2PO4, 1.2 MgCl2, 1.2 CaCl2), 10 Glucose, 10 HEPES (pH adjusted to 7.4 with NaOH) and the apical solution contained (in mM) 145 NaGluconate, 1.2 MgCl2, 1.2 CaCl2), 10 glucose, 10 HEPES (pH adjusted to 7.4 with NaOH) and 30 μM amiloride to block the epithelial sodium channel. Forskolin (20 μM) was added to the apical surface to activate CFTR, followed by apical addition of a CFTR inhibitor cocktail consisting of BPO, GlyH-101 and CFTR inhibitor 172 (each at 20 μM final assay concentration) to specifically isolate CFTR currents. The CFTR-mediated ISC (μA/cm^2) for each condition was determined from the peak forskolin response to the steady-state current following inhibition.
Identification of Potentiator Compounds
The activity of the CFTR potentiator compounds on the CFTR-mediated ISC was determined in Ussing chamber studies as described above. The F508del/MF-HBE cell cultures were incubated with the potentiator compounds at a range of concentrations in combination with 10 μM (14S)-8-[3-(2-{dispiro[2.0.2.1]heptan-7-yl}ethoxy)-1H-pyrazol-1-yl]-12,12-dimethyl-2λ^6-thia-3,9,11,18,23-pentaazatetracyclo [17.3.1.111,14.05,10]tetracosa-1(22),5,7,9,19(23),20-hexaene-2,2,4-trione for 18-24 hours at 37° C. and in the presence of 20% human serum. The concentration of potentiator compounds and (14S)-8-[3-(2-{dispiro[2.0.2.1]heptan-7-yl}ethoxy)-1H-pyrazol-1-yl]-12,12-dimethyl-2λ^6-thia-3,9,11,18,23-pentaazatetracyclo [17.3.1.111,14.05,10]tetracosa-1(22),5,7,9,19(23),20-hexaene-2,2,4-trione used during the 18-24 hours incubations was kept constant throughout the Ussing chamber measurement of the CFTR-mediated ISC to ensure compounds were present throughout the entire experiment. The efficacy and potency of the putative F508del potentiators was compared to that of the known Vertex potentiator, ivacaftor (N-[2,4-bis(1,1-dimethylethyl)-5-hydroxyphenyl]-1,4-dihydro-4-oxoquinoline-3-carboxamide).

T1 sequence (P13569 with tags, fused parts or gaps DEL508-508): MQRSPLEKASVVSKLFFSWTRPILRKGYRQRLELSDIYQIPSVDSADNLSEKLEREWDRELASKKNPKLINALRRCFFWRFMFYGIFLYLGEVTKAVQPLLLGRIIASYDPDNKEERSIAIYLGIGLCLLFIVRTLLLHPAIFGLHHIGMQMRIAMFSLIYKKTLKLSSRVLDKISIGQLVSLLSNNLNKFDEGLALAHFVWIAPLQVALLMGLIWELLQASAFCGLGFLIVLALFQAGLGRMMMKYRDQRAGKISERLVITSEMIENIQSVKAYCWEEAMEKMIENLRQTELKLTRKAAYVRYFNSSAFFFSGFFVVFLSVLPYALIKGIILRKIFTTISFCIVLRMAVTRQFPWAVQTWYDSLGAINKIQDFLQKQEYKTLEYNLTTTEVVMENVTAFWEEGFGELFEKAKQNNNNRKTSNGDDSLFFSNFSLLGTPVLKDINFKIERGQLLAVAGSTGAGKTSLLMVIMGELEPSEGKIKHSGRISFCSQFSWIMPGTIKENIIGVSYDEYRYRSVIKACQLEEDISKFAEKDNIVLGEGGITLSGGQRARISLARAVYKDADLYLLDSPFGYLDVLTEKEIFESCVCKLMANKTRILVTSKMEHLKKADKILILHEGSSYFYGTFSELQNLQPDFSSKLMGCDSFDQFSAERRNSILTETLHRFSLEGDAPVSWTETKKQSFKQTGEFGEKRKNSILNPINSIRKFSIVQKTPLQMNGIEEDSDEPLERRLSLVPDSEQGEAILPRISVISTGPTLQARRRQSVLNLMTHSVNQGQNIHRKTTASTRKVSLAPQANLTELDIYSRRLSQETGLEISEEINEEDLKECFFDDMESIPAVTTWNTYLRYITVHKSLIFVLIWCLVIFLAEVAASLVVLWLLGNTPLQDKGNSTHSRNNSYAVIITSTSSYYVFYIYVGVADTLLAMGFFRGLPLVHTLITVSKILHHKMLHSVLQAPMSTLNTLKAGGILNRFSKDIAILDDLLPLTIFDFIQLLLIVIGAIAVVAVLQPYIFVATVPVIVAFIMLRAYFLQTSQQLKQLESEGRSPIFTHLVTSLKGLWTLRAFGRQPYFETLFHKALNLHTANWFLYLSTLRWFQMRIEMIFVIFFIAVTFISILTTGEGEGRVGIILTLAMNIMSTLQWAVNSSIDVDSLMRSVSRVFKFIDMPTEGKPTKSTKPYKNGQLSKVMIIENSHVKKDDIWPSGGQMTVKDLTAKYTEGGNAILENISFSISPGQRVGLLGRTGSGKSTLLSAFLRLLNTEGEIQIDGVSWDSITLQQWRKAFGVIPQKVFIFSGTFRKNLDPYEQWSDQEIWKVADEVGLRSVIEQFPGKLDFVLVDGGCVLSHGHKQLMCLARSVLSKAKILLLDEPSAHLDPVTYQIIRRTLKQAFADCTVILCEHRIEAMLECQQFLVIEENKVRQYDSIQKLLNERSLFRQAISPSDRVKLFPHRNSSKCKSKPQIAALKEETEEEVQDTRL

SMILES | EC50 [nM]
CCOC(=O)CN1CCCCCCC(O)(C(F)(F)F)C2=NN=C(O2)c2nc1c(C(F)(F)F)cc2N (single isomer, unassigned) [Compound 46, ethyl 2-[17-amino-6-hydroxy-6,15-bis(trifluoromethyl)-19-oxa-3,4,13,18-tetrazatricyclo[12.3.1.12,5]nonadeca-1(18),2,4,14,16-pentaen-13-yl]acetate] | < 500
Nc1cc(C(F)(F)F)c2nc1-c1nnc(o1)C(O)(C(F)(F)F)CCCCCC1CCS(=O)(=O)N21 (single isomer, unassigned) [Compound 111, 20-amino-6-hydroxy-6,18-bis(trifluoromethyl)-22-oxa-15λ6-thia-3,4,16,21-tetraazatetracyclo[15.3.1.12,5.012,16]docosa-1(21),2,4,17,19-pentaene-15,15-dione] | > 1000
CCOC(=O)C1CCCCCC(O)(C(F)(F)F)C2=NN=C(O2)c2nc(c(C(F)(F)F)cc2N)N1 (single isomer, unassigned) [Compound 97, ethyl 17-amino-6-hydroxy-6,15-bis(trifluoromethyl)-19-oxa-3,4,13,18-tetrazatricyclo[12.3.1.12,5]nonadeca-1(18),2,4,14,16-pentaene-12-carboxylate] | > 1000
CC1(C)CCCCC(O)(C(F)(F)F)C2=NN=C(O2)c2nc(c(C(F)(F)F)cc2N)NC1 (single isomer, unassigned) [Compound 172, 17-amino-11,11-dimethyl-6,15-bis(trifluoromethyl)-19-oxa-3,4,13,18-tetrazatricyclo[12.3.1.12,5]nonadeca-1(18),2,4,14,16-pentaen-6-ol] | < 500
Nc1cc(C(F)(F)F)c2nc1-c1nnc(o1)C(O)(C(F)(F)F)CCCCCC(CO)N2 (single isomer, unassigned) [Compound 103, 17-amino-12-(hydroxymethyl)-6,15-bis(trifluoromethyl)-19-oxa-3,4,13,18-tetrazatricyclo[12.3.1.12,5]nonadeca-1(18),2,4,14,16-pentaen-6-ol] | < 500
CP(C)(=O)c1cc(N)c2nc1N1CCC[C@H]1CCCCCC(O)(C(F)(F)F)C1=NN=C2O1 (single isomer, unassigned) [Compound 99] | > 1000
CC(C)c1cc(N)c2nc1N1CCC[C@H]1CCCCCC(O)(C(F)(F)F)C1=NN=C2O1 (single isomer, unassigned) [Compound 63] | < 500
Nc1cc(C(F)(F)F)c2nc1-c1nnc(o1)[C@@](O)(C(F)(F)F)CCCCCC1(CCCC1)N2 [Compound 177, (6R)-17-amino-6,15-bis(trifluoromethyl)spiro[19-oxa-3,4,13,18-tetrazatricyclo[12.3.1.12,5]nonadeca-1(18),2,4,14,16-pentaene-12,1′-cyclopentane]-6-ol] | < 500
CN1CCCCCCC(=O)C2=NN=C(O2)c2nc1c(C(F)(F)F)cc2N [Compound 58, 17-amino-13-methyl-15-(trifluoromethyl)-19-oxa-3,4,13,18-tetrazatricyclo[12.3.1.12,5]nonadeca-1(18),2,4,14,16-pentaen-6-one] | < 500
Nc1cc(-c2ccccn2)c2nc1-c1nnc(o1)C(O)(C(F)(F)F)CCCCC[C@@H]1CCCN21 (mixture of isomers) [Compound 132, (12R)-20-amino-18-(pyridin-2-yl)-6-(trifluoromethyl)-22-oxa-3,4,16,21-tetraazatetracyclo[15.3.1.12,5.012,16]docosa-1(21),2,4,17,19-pentaen-6-ol] | > 1000
CC(C)N1CCCCCCC(O)(C(F)(F)F)C2=NN=C(O2)c2nc1c(C(F)(F)F)cc2N (single isomer, unassigned) [Compound 53, 17-amino-13-isopropyl-6,15-bis(trifluoromethyl)-19-oxa-3,4,13,18-tetrazatricyclo[12.3.1.12,5]nonadeca-1(18),2,4,14,16-pentaen-6-ol] | > 1000
CN1CCCCCCC(C)(O)C2=NN=C(O2)c2nc1c(C(F)(F)F)cc2N (single isomer, unassigned) [Compound 62, 17-amino-6,13-dimethyl-15-(trifluoromethyl)-19-oxa-3,4,13,18-tetrazatricyclo[12.3.1.12,5]nonadeca-1(17),2,4,14(18),15-pentaen-6-ol] | < 500
CN(C)C(=O)C1CCCCCC(O)(C(F)(F)F)C2=NN=C(O2)c2nc(c(C(F)(F)F)cc2N)N1 (single isomer, unassigned) [Compound 149, 17-amino-6-hydroxy-N,N-dimethyl-6,15-bis(trifluoromethyl)-19-oxa-3,4,13,18-tetrazatricyclo[12.3.1.12,5]nonadeca-1(18),2,4,14,16-pentaene-12-carboxamide] | > 1000
Nc1cc(C2CC2)c2nc1-c1nnc(o1)C(O)(C(F)(F)F)CCCCC[C@@H]1CCCN21 (single isomer, unassigned) [Compound 91] | > 1000
Nc1cc(C(F)(F)F)c2nc1-c1nnc(o1)C(O)(C(F)(F)F)CCCCCC(=O)N2 (single isomer, unassigned) [Compound 108, 17-amino-6-hydroxy-6,15-bis(trifluoromethyl)-19-oxa-3,4,13,18-tetrazatricyclo[12.3.1.12,5]nonadeca-1(18),2,4,14,16-pentaen-12-one] | < 500
Nc1cc(C(F)(F)F)c2nc1-c1nnc(o1)C(O)(C(F)(F)F)CCCCCCN2CCO (single isomer, unassigned) [Compound 41, 17-amino-13-(2-hydroxyethyl)-6,15-bis(trifluoromethyl)-19-oxa-3,4,13,18-tetrazatricyclo[12.3.1.12,5]nonadeca-1(18),2,4,14,16-pentaen-6-ol] | < 500
CC1(O)CCCCC[C@@H]2CCCN2c2nc(c(N)cc2C(F)(F)F)C2=NN=C1O2 (single isomer, unassigned) [Compound 45] | < 500
Nc1cc(C2CCCCC2)c2nc1-c1nnc(o1)C(O)(C(F)(F)F)CCCCC[C@@H]1CCCN21 (mixture of isomers) [Compound 129, (12R)-20-amino-18-cyclohexyl-6-(trifluoromethyl)-22-oxa-3,4,16,21-tetraazatetracyclo[15.3.1.12,5.012,16]docosa-1(21),2,4,17,19-pentaen-6-ol] | < 500
Nc1cc(C(F)(F)F)c2nc1-c1nnc(o1)[C@@](O)(C(F)(F)F)CCCCCC(C(=O)N1CCCC1)N2 (stereo partly drawn) [Compound 154, [(6R)-17-amino-6-hydroxy-6,15-bis(trifluoromethyl)-19-oxa-3,4,13,18-tetrazatricyclo[12.3.1.12,5]nonadeca-1(18),2,4,14,16-pentaen-12-yl]-pyrrolidin-1-yl-methanone] | > 1000
Nc1cc(C(F)(F)F)c2nc1-c1nnc(o1)[C@@](O)(C(F)(F)F)CCCCCC1(CCOCC1)N2 [Compound 205, (6R)-17-amino-6,15-bis(trifluoromethyl)spiro[19-oxa-3,4,13,18-tetrazatricyclo[12.3.1.12,5]nonadeca-1(18),2,4,14,16-pentaene-12,4′-tetrahydropyran]-6-ol] | < 500
CN1CCCCCCC(C)(O)C2=NN=C(O2)c2nc1c(C(F)(F)F)cc2N (single isomer, unassigned) [Compound 61, 17-amino-6,13-dimethyl-15-(trifluoromethyl)-19-oxa-3,4,13,18-tetrazatricyclo[12.3.1.12,5]nonadeca-1(17),2,4,14(18),15-pentaen-6-ol] | < 500
Nc1cc(C(F)(F)F)c2nc1-c1nnc(o1)C(O)(C(F)(F)F)c1cc(ccn1)CCC[C@@H]1CCCN21 (single isomer, unassigned) [Compound 87] | < 500
Nc1cc(C(F)(F)F)c2nc1-c1nnc(o1)C(O)(C(F)(F)F)CCCCCC(CO)N2 (single isomer, unassigned) [Compound 104, 17-amino-12-(hydroxymethyl)-6,15-bis(trifluoromethyl)-19-oxa-3,4,13,18-tetrazatricyclo[12.3.1.12,5]nonadeca-1(18),2,4,14,16-pentaen-6-ol] | < 500

— US12324802B2, “Modulators of cystic fibrosis transmembrane conductance regulator” (Vertex Pharmaceuticals Incorporated, priority 2020, dated 2025)
